Experimental data from US4271163A, “Novel 3,4-diaza-bicyclo[4.1.0]hept-2-en-5-ones, their preparation, and therapeutic agents containing these compounds” (BASF Aktiengesellschaft, priority 1978, dated 1981).
In brackets after ≈: the same amount, converted by molar mass.

Assays:
[1] = test system: human thrombocytes; assay: Inhibition of the collagen-induced aggregation of human thrombocytes in vitro; format: cell-based; settings: human thrombocytes in vitro; for EC50: 10 min, concentration which inhibits the collagen-induced aggregation by 50%, 10 minutes incubation, read-out: Inhibition of collagen-induced thrombocyte aggregation in vitro, EC 50%; for Inhibition of aggregation, R.A. (relative activity): acetylsalicylic acid = 1.00
Description: 1. Inhibition of the collagen-induced aggregation of human thrombocytes in vitro.
(§1) Thrombocyte-rich plasma is obtained by centrifuging venous citrate blood (300 g, 10 minutes duration at 4° C.). The photometric measurement of the thrombocyte aggregation is carried out with addition of MgCl2 (final concentration 10 millimoles/l) and of collagen Stago (final concentration 0.02 mg/ml) in a Born Mk 3 aggregometer. The maximum extinction change/sec is used as a measure of the aggregation.
The aggregation-inhibiting activity of the substances is tested after an incubation time of 10 minutes.
The EC 50% is taken to be the concentration causing 50% inhibition of aggregation.
(§2) The effective doses or effective concentrations were calculated from the linear relationships between the logarithm of the dose or concentration and the logarithm of the effect, by means of regression analysis.
(§3) Acetylsalicylic acid was used as the reference substance for the inhibition of thrombocyte aggregation and dihydralazine for the anti-hypertensive effect.

[2] = test system: rat thrombocytes; assay: Inhibition of the collagen-induced aggregation of rat thrombocytes ex vivo; format: in vivo, rat (male Sprague-Dawley); settings: rats; for ED (33%): Rattus norvegicus, dose which inhibits the collagen-induced aggregation by 33%, read-out: Inhibition of thrombocyte aggregation, ED 33%; for ED (33%) / Inhibition of thrombocyte aggregation, R.A. (relative activity): oral administration; for Inhibition of thrombocyte aggregation, R.A. (relative activity): acetylsalicylic acid = 1.00; for Inhibition of thrombocyte aggregation after oral administration in vivo (in words): versus acetylsalicylic acid
Description: as §1
2. Inhibition of the collagen-induced aggregation of rat thrombocytes ex vivo.
The substances are administered orally to groups of 10-15 male Sprague-Dawley rat weighing 200-250 g. 1-4 hours after administration, blood is taken under ether narcosis and thrombocyte-rich plasma is obtained by centrifuging. The aggregation after addition of collagen is measured as indicated above. The ED 33% is determined as the dose which inhibits the collagen-induced thrombocyte aggregation by 33%.
as §2, §3

[3] = test system: narcotized rats; assay: Anti-hypertensive effect on narcotized rats; format: in vivo, rat (male Sprague-Dawley); settings: rats under urethane narcosis, intraperitoneal; for ED (20%): Rattus norvegicus, ip, dose which lowers the blood pressure by 20%, read-out: Reduction in blood pressure, ED 20%; for Reduction in blood pressure, R.A. (relative activity): dihydralazine = 1.00
Description: 3. Anti-hypertensive effect on narcotized rats.
To test the anti-hypertensive effect, the substances are administered intraperitoneally to groups of 3-5 male Sprague-Dawley rats weighing 240-280 g, under urethane narcosis ([…] given intraperitoneally).
The measurement of the blood pressure in the carotid artery is carried out by means of Statham transducers. The ED 20% is determined as the dose which lowers the mean carotid blood pressure by 20%.
as §2, §3

[4] = test system: spontaneously hypertonic rats; assay: Anti-hypertensive effect on spontaneously hypertonic rats; format: in vivo, rat (male spontaneously hypertonic Okamoto); settings: for ED (20%): Rattus norvegicus, 2 h, dose which lowers the blood pressure by 20% compared to the control group; for ED (20%) / Anti-hypertensive effect, R.A.: oral administration; for Anti-hypertensive effect, R.A.: dihydralazine = 1.00
Description: 4. Anti-hypertensive effect on spontaneously hypertonic rats.
The substances are administered orally to groups of 4-8 male spontaneously hypertonic Okamoto rats weighing 270-340 g. Before, and 2 hours after, the administration, the systolic blood pressure is measured non-surgically by means of piezo-electric crystal sensors.
The ED 20% is determined as the dose which lowers the systolic pressure by 20%, taking into account the values found with untreated control animals.
as §2, §3

Structure (SMILES): CCC(=O)Nc1ccc(C2=NNC(=O)C3CC23)cc1 (centres unmarked) [Example 11, 2-(p-propionylaminophenyl)-3,4-diaza-bicyclo[4.1.0]hept-2-en-5-one]
- EC50 [1]: 0.28 µg/mL (≈ 1.09 µM)
- Inhibition of aggregation, R.A. (relative activity) [1]: 1760
- ED (33%) [2]: 1.48 mg/kg
- Inhibition of thrombocyte aggregation, R.A. (relative activity) [2]: 90.54
- Inhibition of thrombocyte aggregation after oral administration in vivo (in words) [2]: far surpasses the effect of acetylsalicylic acid
- ED (20%) [3]: 0.134 mg/kg
- Reduction in blood pressure, R.A. (relative activity) [3]: 2.52
- ED (20%) [4]: 10 mg/kg
- Anti-hypertensive effect in spontaneously hypertonic rats after oral administration (in words) [4]: demonstrable
- Anti-hypertensive effect, R.A. [4]: 0.69

Structure (SMILES): CC(Cl)C(=O)Nc1ccc(C2=NNC(=O)C3CC23)cc1 (centres unmarked) [Example 20, 2-[p-(2-chloropropionylamino)-phenyl]-3,4-diaza-bicyclo[4.1.0]hept-2-en-5-one]
- EC50 [1]: 0.99 µg/mL (≈ 3.39 µM)
- Inhibition of aggregation, R.A. (relative activity) [1]: 499
- ED (33%) [2]: 3.74 mg/kg
- Inhibition of thrombocyte aggregation, R.A. (relative activity) [2]: 35.83
- Inhibition of thrombocyte aggregation after oral administration in vivo (in words) [2]: far surpasses the effect of acetylsalicylic acid
- ED (20%) [3]: 0.278 mg/kg
- Reduction in blood pressure, R.A. (relative activity) [3]: 1.21
- ED (20%) [4]: 10 mg/kg
- Anti-hypertensive effect in spontaneously hypertonic rats after oral administration (in words) [4]: demonstrable
- Anti-hypertensive effect, R.A. [4]: 0.69
